Experimental data published in patent US11292807B2 (OCEANS LTD., priority 2015, dated 2022).
Like-named read-outs stand apart in the source and are kept apart here.

Tests used:
[1] = CIMA assay, cell viability, CCD1079SK; details: human, Average cell viability, CCD
Method: (§1) Stock solutions of the extracts were prepared in dimethylsulfoxide (DMSO) at 10 mg/mL and stored in 200 μl aliquots at −20° C. until analysis. This preparation ensured that the DMSO delivered to cells in culture never exceeded 1%.
(§2) Prepared extracts were assessed following chronic exposure conditions in which cells were seeded at 2×10^3 cells/well (96 well-plate) and incubated with test compounds for 72 h. Each compound was evaluated over a range of concentrations (0, 10, 25, 50 or 100 μg/ml). Cell proliferation was initially assessed using a standard colorimetric indicator of metabolic activity (CIMA) assay. In this assay, tetrazole reduction was evaluated as a measure of metabolic function that evaluates mitochondrial activity to determine the extent of cell proliferation within a culture. This assay is based on the reduction of yellow tetrazolium salt to purple formazan by mitochondrial reductases enzyme in viable cells, resulting in a color changed that confers a change in absorbance.

[2] = test system: CCD1079SK (fibroblast, noncancerous but proliferating); assay: CIMA assay, cell viability, CCD1079SK; details: CCD
Method: as §1, §2

MDA-MB [3] = assay: cells; details: Homo sapiens, read-out: Average cell viability, MDA-MB
A549 (lung carcinoma) = assay: CIMA assay (colorimetric indicator of metabolic activity), cell viability, A549; details: for Fold change in viability AVG: A549
Method: as §1, §2

PC3 = assay: CIMA assay, cell viability, PC3; details: for Fold change in viability AVG: PC3
[4] = test system: U373 (glioblastoma-astrocytoma); assay: CIMA assay, cell viability, U373; details: for Fold change in viability AVG: U373
[5] = test system: THP-1 (acute monocytic leukemia); assay: CIMA assay, cell viability, THP-1; details: for Fold change in viability AVG: THP-1
Method: as §1, §2

MDA-MB [6] = details: MDA-MB
[7] = test system: SKOV3 (ovarian adenocarcinoma); assay: CIMA assay, cell viability, SKOV3; details: for Fold change in viability AVG: SKOV

CC/C=C\C/C=C\C/C=C\C/C=C\CCC(=O)OC(COC(=O)CCCCCCC/C=C\C/C=C\C/C=C\CC)COC1OC(CO)C(O)C(O)C1O (stereo not shown) [Compound 14, MGDG C18:3/C16:4]
viability at 72 h, 1 ug/mL ([1]; CCD1079SK fibroblast cells (noncancerous, proliferating), 1 ug/mL): 102%
viability at 72 h, 10 ug/mL ([1]; CCD1079SK fibroblast cells (noncancerous, proliferating), 10 ug/mL): 96%
viability at 72 h, 50 ug/mL ([1]; CCD1079SK fibroblasts (noncancerous, proliferating), 50 ug/mL): 49%
viability at 72 h, 100 ug/mL ([1]; CCD1079SK fibroblasts (noncancerous, proliferating), 100 ug/mL): 19%
Fold change in viability AVG ([2]; 1 ug/mL): 1.12
Fold change in viability AVG ([2]; 10 ug/mL): 1.05
Fold change in viability AVG ([2]; 50 ug/mL): 0.54
Fold change in viability AVG ([2]; 100 ug/mL): 0.21
viability at 1 µg/mL (MDA-MB [3]; 1 ug/mL): 104%
viability at 10 µg/mL (MDA-MB [3]; 10 ug/mL): 102%
viability at 50 µg/mL (MDA-MB [3]; 50 ug/mL): 68%
viability at 100 µg/mL (MDA-MB [3]; 100 ug/mL): 18%
A549 AVG (A549 (lung carcinoma); A549, sample at 1 ug/mL): 1.15
A549 AVG (A549 (lung carcinoma); A549, sample at 10 ug/mL): 1.18
A549 AVG (A549 (lung carcinoma); A549, sample at 50 ug/mL): 1.03
A549 AVG (A549 (lung carcinoma); A549, sample at 100 ug/mL): 0.86
Fold change in viability AVG (A549 (lung carcinoma); 1 ug/mL): 1.15
Fold change in viability AVG (A549 (lung carcinoma); 10 ug/mL): 1.18
Fold change in viability AVG (A549 (lung carcinoma); 50 ug/mL): 1.03
Fold change in viability AVG (A549 (lung carcinoma); 100 ug/mL): 0.86
viability at 1 µg/mL (A549 (lung carcinoma); Homo sapiens, A549, read-out: Average cell viability, A549, 1 ug/mL): 99%
viability at 10 µg/mL (A549 (lung carcinoma); Homo sapiens, A549, read-out: Average cell viability, A549, 10 ug/mL): 101%
viability at 50 µg/mL (A549 (lung carcinoma); Homo sapiens, A549, read-out: Average cell viability, A549, 50 ug/mL): 88%
viability at 100 µg/mL (A549 (lung carcinoma); Homo sapiens, A549, read-out: Average cell viability, A549, 100 ug/mL): 74%
viability at 1 µg/mL (PC3; Homo sapiens, PC-3, read-out: Average cell viability, PC3, 1 ug/mL): 103%
viability at 10 µg/mL (PC3; Homo sapiens, PC-3, read-out: Average cell viability, PC3, 10 ug/mL): 98%
viability at 50 µg/mL (PC3; Homo sapiens, PC-3, read-out: Average cell viability, PC3, 50 ug/mL): 66%
viability at 100 µg/mL (PC3; Homo sapiens, PC-3, read-out: Average cell viability, PC3, 100 ug/mL): 12%
PC3 AVG (PC3; PC3, sample at 1 ug/mL): 1.07
PC3 AVG (PC3; PC3, sample at 10 ug/mL): 1.01
PC3 AVG (PC3; PC3, sample at 50 ug/mL): 0.68
PC3 AVG (PC3; PC3, sample at 100 ug/mL): 0.13
Fold change in viability AVG (PC3; 1 ug/mL): 1.07
Fold change in viability AVG (PC3; 10 ug/mL): 1.01
Fold change in viability AVG (PC3; 50 ug/mL): 0.68
Fold change in viability AVG (PC3; 100 ug/mL): 0.13
viability at 1 µg/mL ([4]; Homo sapiens, U373 MG, read-out: Average cell viability, U373, 1 ug/mL): 109%
viability at 10 µg/mL ([4]; Homo sapiens, U373 MG, read-out: Average cell viability, U373, 10 ug/mL): 100%
viability at 50 µg/mL ([4]; Homo sapiens, U373 MG, read-out: Average cell viability, U373, 50 ug/mL): 41%
viability at 100 µg/mL ([4]; Homo sapiens, U373 MG, read-out: Average cell viability, U373, 100 ug/mL): 9%
U373 AVG ([4]; U373, sample at 1 ug/mL): 1.10
U373 AVG ([4]; U373, sample at 10 ug/mL): 1.02
U373 AVG ([4]; U373, sample at 50 ug/mL): 0.42
U373 AVG ([4]; U373, sample at 100 ug/mL): 0.09
Fold change in viability AVG ([4]; 1 ug/mL): 1.10
Fold change in viability AVG ([4]; 10 ug/mL): 1.02
Fold change in viability AVG ([4]; 50 ug/mL): 0.42
Fold change in viability AVG ([4]; 100 ug/mL): 0.09
viability at 1 µg/mL ([5]; Homo sapiens, THP-1, read-out: Average cell viability, THP-1, 1 ug/mL): 99%
viability at 10 µg/mL ([5]; Homo sapiens, THP-1, read-out: Average cell viability, THP-1, 10 ug/mL): 100%
viability at 50 µg/mL ([5]; Homo sapiens, THP-1, read-out: Average cell viability, THP-1, 50 ug/mL): 62%
viability at 100 µg/mL ([5]; Homo sapiens, THP-1, read-out: Average cell viability, THP-1, 100 ug/mL): 51%
THP-1 AVG ([5]; THP-1, sample at 1 ug/mL): 1.13
THP-1 AVG ([5]; THP-1, sample at 10 ug/mL): 1.14
THP-1 AVG ([5]; THP-1, sample at 50 ug/mL): 0.70
THP-1 AVG ([5]; THP-1, sample at 100 ug/mL): 0.58
Fold change in viability AVG ([5]; 1 ug/mL): 1.12
Fold change in viability AVG ([5]; 10 ug/mL): 1.14
Fold change in viability AVG ([5]; 50 ug/mL): 0.70
Fold change in viability AVG ([5]; 100 ug/mL): 0.58
MDA-MB AVG (MDA-MB [6]; sample at 1 ug/mL): 1.13
MDA-MB AVG (MDA-MB [6]; sample at 10 ug/mL): 1.11
MDA-MB AVG (MDA-MB [6]; sample at 50 ug/mL): 0.74
MDA-MB AVG (MDA-MB [6]; sample at 100 ug/mL): 0.20
Fold change in viability AVG (MDA-MB [6]; 1 ug/mL): 1.13
Fold change in viability AVG (MDA-MB [6]; 10 ug/mL): 1.11
Fold change in viability AVG (MDA-MB [6]; 50 ug/mL): 0.74
Fold change in viability AVG (MDA-MB [6]; 100 ug/mL): 0.20
viability at 1 µg/mL ([7]; Homo sapiens, SK-OV-3, read-out: Average cell viability, SKOV, 1 ug/mL): 109%
viability at 10 µg/mL ([7]; Homo sapiens, SK-OV-3, read-out: Average cell viability, SKOV, 10 ug/mL): 97%
viability at 50 µg/mL ([7]; Homo sapiens, SK-OV-3, read-out: Average cell viability, SKOV, 50 ug/mL): 92%
viability at 100 µg/mL ([7]; Homo sapiens, SK-OV-3, read-out: Average cell viability, SKOV, 100 ug/mL): 67%
Fold change in viability AVG ([7]; 1 ug/mL): 1.17
Fold change in viability AVG ([7]; 10 ug/mL): 1.05
Fold change in viability AVG ([7]; 50 ug/mL): 0.89
Fold change in viability AVG ([7]; 100 ug/mL): 0.72
